How the values were obtained:
Type in all cases: in vivo
[1] = tested on: pigweed (Amaranthus retroflexus); experiment: Test A preemergence
[2] = tested on: ryegrass, Italian (Italian ryegrass, Lolium multiflorum); experiment: Test A preemergence
Procedure, shortened: (§1)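 Seeds sprayed preemergence with a directed soil spray, or plants at 2 to 10 cm height and one- to two-leaf stage sprayed postemergence, with test chemicals in a non-phytotoxic solvent mixture containing surfactant, in loam soil–sand blend. Injury rated visually against untreated controls after about 10 d in greenhouse, 0 (no effect) to 100 (complete control).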

[3] = tested on: ragweed (common ragweed, Ambrosia elatior); experiment: Test A preemergence
Procedure, shortened: as §1

[4] = tested on: giant foxtail (Setaria faberii); experiment: Test A preemergence
Procedure, shortened: as §1

[5] = tested on: barnyardgrass (Echinochloa crus-galli); experiment: Test A preemergence
Procedure, shortened: as §1

[6] = tested on: Kochia (Kochia scoparia); experiment: Test A preemergence
Procedure, shortened: as §1

[7] = tested on: pigweed (Amaranthus retroflexus); experiment: Test A postemergence
Procedure, shortened: as §1

[8] = tested on: corn (Zea mays); experiment: Test A postemergence
Procedure, shortened: as §1

[9] = tested on: ryegrass, Italian (Italian ryegrass, Lolium multiflorum); experiment: Test A postemergence
Procedure, shortened: as §1

[10] = tested on: ragweed (common ragweed, Ambrosia elatior); experiment: Test A postemergence
Procedure, shortened: as §1

[11] = tested on: giant foxtail (Setaria faberii); experiment: Test A postemergence
Procedure, shortened: as §1

[12] = tested on: barnyardgrass (Echinochloa crus-galli); experiment: Test A postemergence
Procedure, shortened: as §1

[13] = tested on: blackgrass (Alopecurus myosuroides); experiment: Test A postemergence
Procedure, shortened: as §1

[14] = tested on: wheat (Triticum aestivum); experiment: Test A postemergence
Procedure, shortened: as §1

[15] = tested on: Kochia (Kochia scoparia); experiment: Test A postemergence
Procedure, shortened: as §1

[16] = tested on: Galium (catchweed bedstraw, Galium aparine); experiment: Test A postemergence
Procedure, shortened: as §1

[17] = tested on: sedge, umbrella (small-flower umbrella sedge, Cyperus difformis); experiment: Test B flooded paddy test; settings: Flood, 250 g ai/ha, 0 to 100 scale where 0 is no effect and 100 is complete control; for Plant response rating, Sedge, Umbrella: 13 to 15 d
Procedure, shortened: (§2)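 Plants at 2-leaf stage flooded to 3 cm above soil, with compounds applied directly to paddy water and that depth maintained. Plants kept in greenhouse 13–15 d. Visual rating versus controls on a 0 (no effect) to 100 (complete control) scale.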

[18] = tested on: ducksalad (Heteranthera limosa); experiment: Test B flooded paddy test; settings: Flood, 250 g ai/ha; for Plant response rating, Ducksalad: 0 to 100 scale where 0 is no effect and 100 is complete control, 13 to 15 d
Procedure, shortened: as §2

[19] = tested on: barnyardgrass (Echinochloa crus-galli); experiment: Test B flooded paddy test; settings: Flood, 250 g ai/ha; for Plant response rating, Barnyardgrass: 0 to 100 scale where 0 is no effect and 100 is complete control, 13 to 15 d
Procedure, shortened: as §2

[20] = tested on: rice (Oryra sativa); experiment: Test B flooded paddy test; settings: Flood, 250 g ai/ha; for Plant response rating, Rice: 0 to 100 scale where 0 is no effect and 100 is complete control, 13 to 15 d
Procedure, shortened: as §2

[21] = 125 g ai/ha, preemergence, 0 to 100 scale (0 no effect, 100 complete control)
[22] = Preemergence, 500 g ai/ha, visual injury approx. 10 d
[23] = 125 g ai/ha, postemergence, visual injury rating on 0 to 100 scale (0 no effect, 100 complete control), approx. 10 d
[24] = 500 g ai/ha, postemergence, 0 to 100 scale, 0 no effect, 100 complete control
[25] = 125 g ai/ha, Preemergence, visual injury rating after approximately 10 d
[26] = 500 g ai/ha, preemergence, visual injury rating about 10 d after treatment, 0 to 100 scale (0 no effect, 100 complete control)
[27] = 125 g ai/ha, Postemergence, visual injury after approximately 10 d, 0 to 100 scale where 0 is no effect and 100 is complete control
[28] = scale of 0 to 100 where 0 is no effect and 100 is complete control
[29] = 125 g ai/ha, Preemergence, visual injury after approximately 10 d, 0 to 100 scale where 0 is no effect and 100 is complete control
[30] = 500 g ai/ha, preemergence, 0 to 100 scale, 0 = no effect, 100 = complete control
[31] = 125 g ai/ha, postemergence, visual rating after approx. 10 d, 0 to 100 scale (0 no effect, 100 complete control)
[32] = 500 g ai/ha, postemergence, visual injury, 0 to 100 scale (0 no effect, 100 complete control), approx. 10 d

O=C1NCC(c2ccc(Br)cc2)C1C(=O)Nc1ccccc1Cl (centres unmarked) [Compound 453]
Plant response rating, Pigweed [1, 21]: 20 | Pigweed plant response rating (0 to 100 scale, 0 is no effect, 100 is complete control) [1, 22]: 30 | Plant response rating, Ryegrass, Italian [2, 21]: 0 | Ryegrass, Italian plant response rating (0 to 100 scale, 0 is no effect, 100 is complete control) [2, 22]: 0 | Plant response rating, Ragweed [3, 21]: 0 | Ragweed plant response rating (0 to 100 scale, 0 is no effect, 100 is complete control) [3, 22]: 20 | Plant response rating, Foxtail, Giant [4, 21]: 90 | Foxtail, Giant plant response rating (0 to 100 scale, 0 is no effect, 100 is complete control) [4, 22]: 90 | Plant response rating, Barnyardgrass [5, 21]: 80 | Barnyardgrass plant response rating (0 to 100 scale, 0 is no effect, 100 is complete control) [5, 22]: 90 | Plant response rating, Kochia [6, 21]: 0 | Kochia plant response rating (0 to 100 scale, 0 is no effect, 100 is complete control) [6, 22]: 30 | Pigweed plant response rating [7, 23]: 0 | Plant response rating, Pigweed [7, 24]: 0 | Corn plant response rating [8, 23]: 0 | Plant response rating, Corn [8, 24]: 40 | Ryegrass, Italian plant response rating [9, 23]: 0 | Plant response rating, Ryegrass, Italian [9, 24]: 0 | Ragweed plant response rating [10, 23]: 0 | Plant response rating, Ragweed [10, 24]: 0 | Foxtail, Giant plant response rating [11, 23]: 80 | Plant response rating, Foxtail, Giant [11, 24]: 80 | Barnyardgrass plant response rating [12, 23]: 80 | Plant response rating, Barnyardgrass [12, 24]: 80 | Blackgrass plant response rating [13, 23]: 0 | Plant response rating, Blackgrass [13, 24]: 30 | Wheat plant response rating [14, 23]: 0 | Plant response rating, Wheat [14, 24]: 30 | Kochia plant response rating [15, 23]: 20 | Plant response rating, Kochia [15, 24]: 30 | Galium plant response rating [16, 23]: 30 | Plant response rating, Galium [16, 24]: 40 | Plant response rating, Sedge, Umbrella [17]: 0 | Plant response rating, Ducksalad [18]: 95 | Plant response rating, Barnyardgrass [19]: 30 | Plant response rating, Rice [20]: 0

Cc1ccc([C@H]2CN(C)C(=O)[C@@H]2C(=O)Nc2ccccc2[S+](C)[O-])cc1F (some centres unmarked) [Compound 988]
Pigweed plant response rating (0 to 100 scale, 0 is no effect, 100 is complete control) [1, 25]: 30 | Pigweed plant response rating [1, 26]: 40 | Ryegrass, Italian plant response rating (0 to 100 scale, 0 is no effect, 100 is complete control) [2, 25]: 0 | Ryegrass, Italian plant response rating [2, 26]: 20 | Ragweed plant response rating (0 to 100 scale, 0 is no effect, 100 is complete control) [3, 25]: 50 | Ragweed plant response rating [3, 26]: 80 | Foxtail, Giant plant response rating (0 to 100 scale, 0 is no effect, 100 is complete control) [4, 25]: 90 | Foxtail, Giant plant response rating [4, 26]: 90 | Barnyardgrass plant response rating (0 to 100 scale, 0 is no effect, 100 is complete control) [5, 25]: 90 | Barnyardgrass plant response rating [5, 26]: 90 | Kochia plant response rating (0 to 100 scale, 0 is no effect, 100 is complete control) [6, 25]: 30 | Kochia plant response rating [6, 26]: 80 | Plant response rating, Pigweed [7, 27]: 0 | Plant response rating, Corn [8, 27]: 20 | Plant response rating, Ryegrass, Italian [9, 27]: 20 | Plant response rating, Ragweed [10, 27]: 0 | Plant response rating, Foxtail, Giant [11, 27]: 80 | Plant response rating, Barnyardgrass [12, 27]: 80 | Plant response rating, Blackgrass [13, 27]: 30 | Plant response rating, Wheat [14, 27]: 30 | Plant response rating, Kochia [15, 27]: 10 | Plant response rating, Galium [16, 27]: 50 | Sedge, Umbrella plant response rating [17]: 0 | Ducksalad plant response rating [18, 28]: 100 | Barnyardgrass plant response rating [19, 28]: 75 | Rice plant response rating [20, 28]: 20

Cc1ccc(C2CNC(=O)C2C(=O)Nc2cccc(F)c2F)cc1C(F)(F)F (centres unmarked) [Compound 642]
Plant response rating, Pigweed [1, 29]: 50 | Plant response rating, Pigweed [1, 30]: 60 | Plant response rating, Ryegrass, Italian [2, 29]: 50 | Plant response rating, Ryegrass, Italian [2, 30]: 80 | Plant response rating, Ragweed [3, 29]: 0 | Plant response rating, Ragweed [3, 30]: 50 | Plant response rating, Foxtail, Giant [4, 29]: 90 | Plant response rating, Foxtail, Giant [4, 30]: 90 | Plant response rating, Barnyardgrass [5, 29]: 90 | Plant response rating, Barnyardgrass [5, 30]: 90 | Plant response rating, Kochia [6, 29]: 40 | Plant response rating, Kochia [6, 30]: 60 | Plant response rating, Pigweed [7, 31]: 0 | Plant response rating, Pigweed [7, 32]: 20 | Plant response rating, Corn [8, 31]: 50 | Plant response rating, Corn [8, 32]: 70 | Plant response rating, Ryegrass, Italian [9, 31]: 40 | Plant response rating, Ryegrass, Italian [9, 32]: 50 | Plant response rating, Ragweed [10, 31]: 0 | Plant response rating, Ragweed [10, 32]: 40 | Plant response rating, Foxtail, Giant [11, 31]: 20 | Plant response rating, Foxtail, Giant [11, 32]: 70 | Plant response rating, Barnyardgrass [12, 31]: 70 | Plant response rating, Barnyardgrass [12, 32]: 90 | Plant response rating, Blackgrass [13, 31]: 20 | Plant response rating, Blackgrass [13, 32]: 40 | Plant response rating, Wheat [14, 31]: 0 | Plant response rating, Wheat [14, 32]: 20 | Plant response rating, Kochia [15, 31]: 20 | Plant response rating, Kochia [15, 32]: 50 | Plant response rating, Galium [16, 31]: 50 | Plant response rating, Galium [16, 32]: 70 | Plant response rating, Sedge, Umbrella [17]: 0 | Plant response rating, Ducksalad [18]: 100 | Plant response rating, Barnyardgrass [19]: 30 | Plant response rating, Rice [20]: 30
